Like-named read-outs stand apart in the source and are kept apart here. Blank lines part the entries; values can stand above or below the molecule they belong to.
How the values were obtained:
[1] = Description: (§1) A flat sheet microporous polypropylene membrane (Celgard 2400, 38% porosity, 0.05 micron average pore size, 25 micron thick) was wet with polypropylene glycol (PPG) MW 4000 obtained from the Dow Chemical Company by putting a few drops of PPG on the membrane sheet and spreading it out. […] The excess PPG was wiped off and the membrane with immobilized PPG was ready for use. […] The same wetting procedure can be used for hollow fiber membranes. In a module form, the fibers can be wet by pumping PPG slowly through the lumens of the fibers. The excess PPG left in the fibers can thereafter be removed by either blowing air or passing water through the tube side of the fibers.
A flat sheet immobilized liquid membrane prepared according to Example 1 was placed between the two compartments of a cell. Surface area of the membrane was 8 cm^2. One cell compartment contained an aqueous waste solution containing para-nitrophenol (PNP) at a concentration of 4000 to 5000 mg/L and 20 wt % KCl. The other compartment contained 0.1N NaOH as an aqueous strip solution. Both solutions were circulated by pumps. Total volume of liquid on each side of the membrane was 100 ml. The system was at room temperature. PNP levels in both compartments were measured periodically using a spectrophotometric method.

Remark: listed apart in the source
[2] = Partition coefficient between polyalkylene glycol (PPG) and water
Description: *Kp = Acid concentration in PPG .div. Acid Concentration in H2 O at […]

[3] = 65° C. (Example 26)
Protocol: Celgard 2500 (flat sheet microporous polypropylene membrane) was wetted with PPG-4000 and sandwiched between two compartments of a membrane cell as described in Example 2. One compartment was filled with a aqueous solution containing 5000 mg/L butanol. Air was swept in the other compartment to remove butanol diffusing through the membrane, thus creating driving force for further transport. The system was operated at 65° C.

[4] = Stability/integrity of supported liquid membrane; type: physicochemical
Description: as §1
The process of Example 2 was repeated but with octanol, a typical organic solvent with high affinity for p-nitrophenol, as the liquid membrane.

[5] = Transport across hollow fiber supported liquid membrane (Examples 5 and 6); type: physicochemical; conditions: Celgard X20 400 hollow fibers; after 3 hours (Example 5)
Description: Celgard X20 400 hollow fibers (40% porosity, 0.065 micron pore size, internal diameter 400 microns, outer diameter 460 microns) were potted into a module containing 54 fibers that were 18 cm long. The total membrane area was 120 cm^2. PPG MW 4000 was pumped through the lumens of the fibers to wet them. Water was then pumped through to remove excess PPG. The module having PPG immobilized in the fiber walls was then used to remove PNP from an aqueous solution containing approximately 4000 to 5000 mg/L PNP and 20 wt % KCl. The aqueous stripping solution was 0.1N NaOH. The set up was similar to that used in Example 2. The initial rate of PNP transport across the hollow fiber membrane was about 4 mg/hr-cm^2 membrane area. After 3 hours of operation PNP concentration in the stripping side went up to 4400 mg/L and that in the feed side dropped to 45 mg/L.
Using a procedure similar to that of Example 5 but using polysulfone hollow fibers (Permea, St. Louis) as the membrane support, selective extraction of PNP from an aqueous waste solution was examined. Ultrafiltration polysulfone hollow fibers (18 cm long, MW cutoff 160,000, OD 1150 microns, ID 870 microns) were potted into a module containing 10 fibers that were 17.6 cm long. The effective membrane area was about 48 cm^2. The initial rate of transport was about 1 mg PNP/hr-cm^2 membrane area.

[6] = known octanol/water system; cited from earlier work
[7] = 5 wt % acid, 20 wt % KCl, strip 0.1N NaOH, room temperature (Table 1)
[8] = PPG MW about 4000 in CELGARD 2400, 20 wt % NaCl
[9] = Celgard 2402, overnight (Example 4)
[10] = Celgard 2500, overnight (Example 3)
[11] = overnight, feed pH 5.4, 20 wt. % KCl (Example 29)
[12] = PPG in Celgard 2400, strip 0.1N NaOH, room temperature (Table 3)
[13] = 30 wt. % Pluronic L-81 in PPG-4000 (Example 23)

Initial Rate [1, 7]: 5.4 mg/hr-cm^2
Permeability (not told): 33 ×10⁻⁶ cm/s
SMILES: CCC(=O)O [Propionic Acid (C3), Propionic Acid]

SMILES: Oc1ccccc1 [Phenol]
K PPG-4000/Water [2]: 150
concentration in the feed [1]: about 5 mg/L
concentration in the stripping solution [1]: about 5050 mg/L

initial rate of butanol removal ([3]; PPG-4000 in Celgard 2500, air sweep): about 7 mg/hr-cm^2
butanol concentration in the aqueous solution ([3]; after about 5 hr, initial 5000 mg/L): about 400 mg/L
SMILES: CCCCO [butanol]

SMILES: N#C/C=C/C#N [fumaronitrile]
initial rate of fumaronitrile transport [1]: about 0.5 mg/hr-cm^2

Initial Rate [1, 7]: 1.6 mg/hr-cm^2
SMILES: CC(=O)O [Acetic Acid (C2), Acetic Acid]

SMILES: [Cl-].[Na+] [NaCl]
salt passage through liquid membrane [4, 8]: essentially no salt to pass through

SMILES: O=[N+]([O-])c1ccc(O)cc1 [PNP, para-nitrophenol]
K PPG-4000/Water [2]: 300
PNP concentration in feed side [1, 9]: 10 mg/L
PNP concentration in stripping side [1, 9]: 4900 mg/L
PNP concentration in feed side [1, 10]: 5 mg/L
PNP concentration in stripping side [1, 10]: 4430 mg/L
separation factor for PNP over KCl ([1]; Example 2): at least 2000
PNP concentration difference caustic side vs waste side ([1]; Example 2, overnight): over 1000 times
PNP concentration in caustic side ([1]; Example 2, overnight): about 3800 mg/L
PNP concentration in waste side ([1]; Example 2, overnight, initial 4000 to 5000 mg/L): about 3 mg/L
PNP level in waste solution ([1]; Igepal CO-210 liquid membrane, after 24 hours, initial 4397 ppm (Example 2f)): 10 ppm
ratio of PNP concentration caustic side over waste side ([1]; PBG MW 2000, overnight (Example 20)): about 1300
PNP level in waste solution ([1]; carbamate-functional liquid membrane drawing 12, after 5.5 hours, initial 4300 ppm (Example 2c)): 25 ppm
PNP level in waste solution ([1]; carbamate-functional liquid membrane drawing 12, overnight (Example 2c)): 5 ppm
PNP level in waste solution ([1]; castor oil liquid membrane, after 96 hours, initial 4272 ppm (Example 2e)): 4 ppm
PNP removal from the feed solution [1, 11]: about 99%
PNP ratio (concentration of strip side to feed side) ([1]; polybutylene glycol MW approximately 5000, overnight (Example 21)): 120
PNP level in waste solution ([1]; strip 50 wt. % PEG-200, after about 9 hours, initial 4449 ppm (Example 2b)): 192 ppm
PNP level in waste solution ([1]; strip PEG-200, after about 8 hours, initial 4700 ppm (Example 2a)): 12 ppm
PNP level in waste solution ([1]; strip PEG-200, after two days, initial 4700 ppm (Example 2a)): 0.6 ppm
PNP concentration in feed side [5]: 45 mg/L
PNP concentration in stripping side [5]: 4400 mg/L

SMILES: CCCCCC(=O)O [Caproic Acid (C6), Caproic Acid]
Partition Coeff. (Kp) [2]: 83
initial rate of caproic acid transport relative to PPG membrane ([1]; carbamate-functional liquid membrane drawing 12 (Example 2d)): about the same as with PPF-4000
caproic acid level in waste solution ([1]; carbamate-functional liquid membrane drawing 12, after 23 hours, initial 1800 ppm (Example 2d)): 13 ppm
Permeability [12]: 400 ×10⁻⁶ cm/s

SMILES: N.N.O=S(=O)(O)O [ammonium sulfate]
ammonium sulfate detected in the stripping solution [1]: no ammonium sulfate was detected

SMILES: O=C(O)c1ccccc1 [benzoic acid]
benzoic acid passage through membrane ([1]; feed pH 5.4 (Example 29)): virtually blocked by the membrane
remaining in feed / transported ([1]; overnight, feed pH 2.5 (Example 30)): virtually gone from the feed
benzoic acid detected in aqueous strip solution [1, 11]: < 1 % of feed
benzoic acid level in strip solution ([1]; overnight, from hydrolysis of ethyl benzoate (Example 33)): about 420 mg/L

time to breakdown of immobilized liquid membrane ([4]; octanol liquid membrane in operation (Example 25)): about 10 minutes
SMILES: CCCCCCCCO [octanol, reference compound]

SMILES: Nc1ccc([N+](=O)[O-])cc1 [p-nitroaniline]
initial rate of PNA transport ([1]; feed pH 9, ~500 mg/L, strip 0.1N nitric acid (Example 8)): about 1.5 mg/hr-cm^2
PNA level in the feed ([1]; overnight (Example 8)): 70 mg/L
PNA level in the stripping solution ([1]; overnight (Example 8)): 450 mg/L

SMILES: C=CC(=O)O [Acrylic Acid]
K PPG-4000/Water [2]: 5
K Octanol/Water [6]: 1.35

SMILES: O=CO [Formic Acid (C1), Formic Acid]
Partition Coeff. (Kp) ([2]; acid concentration in PPG ÷ acid concentration in H2O at equilibrium): 0.45
Initial Rate [1]: 1.0 mg/hr-cm^2
Permeability [12]: 5.5 ×10⁻⁶ cm/s
Rate (pH 1.6): 1.0
Rate (pH 5): 0.026

SMILES: CCOC(=O)c1ccccc1 [ethyl benzoate]
permeability of ethyl benzoate through the membrane ([1]; PPG membrane, feed pH 7.1, strip 0.1N NaOH, 23° C. (Example 33)): about 9×10^-4 cm/sec
ethyl benzoate concentration in the feed side ([1]; overnight, initial 500 mg/L (Example 33)): 1 mg/L

Permeability (not told): 42 ×10⁻⁶ cm/s
SMILES: CCCC(=O)O [Butyric Acid (C4), Butyric Acid]

water movement (diffusion) through liquid membrane [4, 8]: very little water movement
SMILES: O [water]

change of initial rate of maleimide transport vs Example 22 [1, 13]: more than doubled
initial rate of maleimide transport [1, 13]: 2.5 mg/hr-cm^2
initial rate of maleimide transport ([1]; PPG-4000, 7,000 mg/L maleimide, 40 wt. % ammonium sulfate (Example 22)): about 1.2 mg/hr-cm^2
SMILES: O=C1C=CC(=O)N1 [maleimide]

SMILES: [Cl-].[K+] [KCl]
chloride concentration on waste side ([1]; Example 2): over 100 g/L
chloride content in caustic strip solution ([1]; Example 2, overnight, measure of KCl transport): 0.049 g/L

Partition Coeff. (Kp) [2]: 24.6
Permeability (not told): 160 ×10⁻⁶ cm/s
SMILES: CCCCC(=O)O [Valeric Acid (C5), Valeric Acid]

— patent US5507949A, “Supported liquid membrane and separation process employing same” (Monsanto Company, priority 1993, dated 1996)
